Reference: the PolyMetriX glass transition set
± gives the standard deviation of the reports.

Row | SMILES | glass transition temperature [°C]
1 | *Nc1ccc(C(=O)c2ccc(NC(=O)c3cc(C(*)=O)cc(C(C)(C)C)c3)cc2)cc1 (repeat unit) | 271.00
2 | *O[Si](*)(C)CCCCCCCCCCC(=O)Oc1ccc(C(=O)Oc2ccc(-c3ccc(OC(=O)c4ccc(OCC(C)CC)cc4)cc3)cc2)cc1 (repeat unit) | 74.30
3 | *CC1CCCC(CNC(=O)c2cccc(C(=O)N*)c2)C1 (repeat unit) | 180.00
4 | *c1ccc(Oc2ccc(C(c3ccc(Oc4ccc(N5C(=O)CC(=O)N(*)C5=S)cc4)cc3)(C(F)(F)F)C(F)(F)F)cc2)cc1 (repeat unit) | 147.00
5 | *CC(*)(C)C(=O)Oc1cc(C)ccc1C (repeat unit) | 111.00
6 | *c1ccc2c(c1)C(=O)N(c1c(C)cc(C(c3cc(C(F)(F)F)cc(C(F)(F)F)c3)c3cc(C)c(N4C(=O)c5ccc(C(*)(C(F)(F)F)C(F)(F)F)cc5C4=O)c(C)c3)cc1C)C2=O (repeat unit) | 288.00
7 | *Oc1ccc(CC(NC(=O)CCc2ccc(OC(=O)CCCC(*)=O)cc2)C(=O)OCCCCCCCC)cc1 (repeat unit) | 32.50
8 | *Nc1cc(NC(=O)c2cccc(C(*)=O)c2)cc(C(=O)OCCOC(=O)/C=C/c2ccc(N(C)C)cc2)c1 (repeat unit) | 186.00
9 | *C(=O)c1ccc(Oc2c(C)cc(-c3cc(C)c(Oc4ccc(C(=O)c5ccc6nc(*)ccc6c5)cc4)c(C)c3C)c(C)c2C)cc1 (repeat unit) | 250.00
10 | *CCCCCCNC(=O)C(OC)C(OC)C(=O)N* (repeat unit) | 106.00
11 | *CC(*)C(=O)OCCn1c2ccccc2c2ccccc21 (repeat unit) | 106.80
12 | *CCCC(C)(C)CNC(=O)c1ccc(C(=O)N*)cc1 (repeat unit) | 157.00
13 | *CCCCCCCCCCOc1ccc(N(c2ccccc2)c2ccc(-c3ccc(N(c4ccccc4)c4ccc(O*)cc4)cc3)cc2)cc1 (repeat unit) | 90.00
14 | *Oc1ccc(C(=O)c2ccc(Oc3ccc(C4(c5ccc(*)cc5)c5ccccc5-c5ccccc54)cc3)cc2)c2ccccc12 (repeat unit) | 260.00
15 | *c1ccc2c(c1)C(=O)N(c1cccc(C(c3cccc(N4C(=O)c5ccc(C(*)(C(F)(F)F)C(F)(F)F)cc5C4=O)c3)(C(F)(F)F)C(F)(F)F)c1)C2=O (repeat unit) | 263.00
16 | *c1ccc(OC(=O)Nc2ccc(-c3ccc(NC(=O)Oc4ccc(-c5nc(-c6ccc([N+](=O)[O-])cc6)[nH]c5*)cc4)cc3OC)c(OC)c2)cc1 (repeat unit) | 202.00
17 | *CCC(C)CCC(=O)O* (repeat unit) [Poly(oxycarbonyl-3-methylpentamethylene) ] | -53 ± 0.6
18 | *Oc1ccc(OC(=O)c2cc(/N=N/c3ccc(OCC)cc3)ccc2-c2ccc(/N=N/c3ccc(OCC)cc3)cc2C(*)=O)cc1 (repeat unit) | 170.00
19 | *CCO* (repeat unit) [Poly(ethylene glycol)] | -15.6 ± 42
20 | *Oc1ccc(P(=O)(c2ccccc2)c2ccc(Oc3ccc(C(c4ccc(*)cc4)(C(F)(F)F)C(F)(F)F)cc3)cc2)cc1 (repeat unit) | 210.50
21 | *CC(*)c1cc(C(=O)OCCCC)ccc1-c1ccc(OCCCCCCCC)cc1 (repeat unit) | 74.00
22 | *CC(*)(C)C(=O)OCCC1CC[N+](C)(CCCCCCOc2ccc(/N=N/c3ccc([N+](=O)[O-])cc3)cc2)CC1 (repeat unit) | 57.80
23 | *CC(C[N-][N+]#N)O* (repeat unit) | -35.00

Row | SMILES | glass transition temperature [°C]
24 | *O[Si](*)(C)CCCOc1ccc(C(=O)Oc2ccc(C#N)cc2)cc1 (repeat unit) | 57.00
25 | *C(F)(F)C1(*)OC(F)(C(F)(F)F)C(F)(C(F)(F)F)O1 (repeat unit) | 165.00
26 | *c1cccc(OCCCCCCOc2cccc(N3C(=O)c4ccc(-c5cccc6c5C(=O)N(*)C6=O)cc4C3=O)c2)c1 (repeat unit) | 157.00
27 | *Oc1ccc(CC(NC(=O)CCc2ccc(OC(=O)CC(C)CCC(*)=O)cc2)C(=O)OC(C)CC)cc1 (repeat unit) | 45.00
28 | *C(=O)c1ccc2c(c1)C(=O)N(c1ccc(C)c(N3C(=O)c4ccc(*)cc4C3=O)c1)C2=O (repeat unit) | 317.2 ± 3.2
29 | *CCCCCOCO* (repeat unit) | -80.00
30 | *N1CCOC1(*)CC (repeat unit) | 55.00
31 | *c1ccc(Oc2ccc(N3C(=O)c4ccc(-c5ccc6c(c5)C(=O)N(*)C6=O)cc4C3=O)cc2)cc1 (repeat unit) | 279.00
32 | *CCCCOCCCCOCCCCOC(=O)c1ccc(/N=C/c2ccc(/C=N/c3ccc(C(=O)O*)cc3)cc2)cc1 (repeat unit) | -13.20
33 | *c1ccc(Oc2ccc(N3C(=O)c4ccc(-c5cccc6c5C(=O)N(*)C6=O)cc4C3=O)cc2)cc1 (repeat unit) | 320.00
34 | *CC(*)(C)C(=O)Oc1ccc(/N=N/c2ccc(OCCCCCCCCCCCOC(=O)c3ccc4c(c3)OCCOCCOCCOCCO4)cc2)cc1 (repeat unit) | 19.00
35 | *Oc1ccc(NC(=O)c2cc(NC(=O)CCCCCCCCCCN3C(=O)c4ccccc4C3=O)cc(C(=O)Nc3ccc(*)cc3)c2)cc1 (repeat unit) | 160.00
36 | *CCCCCSS* (repeat unit) | -72.00
37 | *c1ccc2oc(-c3ccc(Oc4ccc(-c5nc6cc(C(*)(c7ccccc7)C(F)(F)F)ccc6o5)cc4)cc3)nc2c1 (repeat unit) | 299.00
38 | *CC(CC)(CC)CO* (repeat unit) | -30.00
39 | *CC(*)(C)C(=O)Oc1ccc(C)cc1C (repeat unit) | 109.00
40 | *Oc1ccc(Oc2ccc(NC(=O)c3ccc(Oc4ccc(C(C)(C)c5cccc(C(C)(C)c6ccc(Oc7ccc(C(=O)Nc8ccc(*)cc8)cc7)cc6)c5)cc4)cc3)cc2)cc1 (repeat unit) | 147.00
41 | *CCN(*)C(=O)c1ccc(F)c(F)c1 (repeat unit) | 101.00
42 | *Oc1ccc(-c2ccc(-c3ccc(Oc4ccc(C(C)(C)c5ccc(*)cc5)cc4)cc3)cc2)cc1 (repeat unit) | 182.00
43 | *O[Si](*)(C)CCc1ccc(O)cc1 (repeat unit) | 39.00
44 | *CCOP(=O)(/N=N/c1ccc(COC(=O)c2cc(C(=O)OCc3ccc(/N=N/P(=O)(O*)OC)cc3)cc(C(C)(C)C)c2)cc1)OC (repeat unit) | 105.00
45 | *CC(*)(C)C(=O)Oc1ccc(C(=O)Oc2ccc(OC)cc2)cc1 (repeat unit) | 77.00
46 | *c1ccc(Oc2ccc(-c3ccc(Oc4ccc(N5C(=O)c6ccc(Oc7ccc8c(c7)C(=O)N(*)C8=O)cc6C5=O)cc4)cc3)cc2)cc1 (repeat unit) | 245.00

Row | SMILES | glass transition temperature [°C]
47 | */C=C/c1ccc(*)c(OCc2cc(OCc3cc(OCCC(C)CCCC(C)C)cc(OCCC(C)CCCC(C)C)c3)cc(OCc3cc(OCC(CC)CCCC)cc(OCC(CC)CCCC)c3)c2)c1 (repeat unit) | 223.00
48 | *N=P(N=P(N=S(*)(=O)NCC=C)(NCC=C)NCC=C)(NCC=C)NCC=C (repeat unit) | -18.00
49 | *Oc1ccc(CC(NC(=O)CCc2ccc(OC(=O)CCCCCCCCC(*)=O)cc2)C(=O)OC(C)C)cc1 (repeat unit) | 44.00
50 | *O[Si](C)(C)CC(C)(C)COC(=O)c1cccc(C(=O)OCC(C)(C)C[Si](*)(C)C)c1 (repeat unit) | -52.00
51 | *Oc1ccc(CC(NC(=O)CCc2ccc(OC(*)=O)cc2)C(=O)OCCCCCC)cc1 (repeat unit) | 51.50
52 | *CCCCCCN1C(=O)c2ccc(C(c3ccc4c(c3)C(=O)N(*)C4=O)(C(F)(F)F)C(F)(F)F)cc2C1=O (repeat unit) | 155.00
53 | *CC(*)c1ccc(O)c(OC)c1 (repeat unit) | 142.00
54 | *C(=O)Nc1cc(NC(=O)c2cccc(*)n2)cc(-c2nnc(-c3ccccn3)o2)c1 (repeat unit) | 255.00
55 | *CC(OCC(C)C)C(C)(C(=O)OC)C(*)(C)C(=O)OC (repeat unit) | 125.50
56 | *c1cc(/N=N/c2ccc(OC)cc2)cc(*)c1O (repeat unit) | 134.00
57 | *OC(=O)c1ccc(C2(C)CC(C)(C)c3ccc(C(=O)Oc4ccc5c(c4)Oc4cc(*)ccc4C5(C)C)cc32)cc1 (repeat unit) | 297.00
58 | *CCCCCCn1ccc(-c2ccc(-c3ccn(*)n3)cc2)n1 (repeat unit) | 55.00
59 | *CC(*)(C)C(=O)Oc1ccc(C(C)(C)C)cc1 (repeat unit) | 91.00
60 | *CC(*)c1ccc(C)cc1 (repeat unit) [Poly(p-methyl styrene) ] | 101 ± 1.6
61 | *CC(*)CCC1CCCCC1 (repeat unit) | 40.00
62 | *CC(*)CNc1ccc([N+](=O)[O-])cn1 (repeat unit) | 151.00
63 | *c1ccc(Oc2ccc(C3(c4ccc(Oc5ccc(N6C(=O)c7ccc(Oc8ccc(C9(c%10ccc(Oc%11ccc%12c(c%11)C(=O)N(*)C%12=O)cc%10)CCCCCCCCCCC9)cc8)cc7C6=O)cc5)cc4)C4CC5CC(C4)CC3C5)cc2)cc1 (repeat unit) | 262.00
64 | *O[Si](C)(C)O[Si](C)(C)O[Si](*)(c1c(F)c(F)c(F)c(F)c1F)c1c(F)c(F)c(F)c(F)c1F (repeat unit) | -42.00
65 | *c1ccc(Sc2ccc(Oc3ccc(Sc4ccc(N5C(=O)c6ccc(Oc7ccc(C(C)(C)c8ccc(Oc9ccc%10c(c9)C(=O)N(*)C%10=O)cc8)cc7)cc6C5=O)cc4)cc3)cc2)cc1 (repeat unit) | 199.00
66 | *C1CCC(CC2CCC(N3C(=O)c4ccc(Oc5ccc6c(c5)C(=O)N(*)C6=O)cc4C3=O)CC2)CC1 (repeat unit) | 240.00
67 | *CCN(CCOC(=O)c1ccc(C(=O)O*)c(OCCC)c1)c1ccc(/N=N/c2nc(C#N)c(C#N)[nH]2)cc1 (repeat unit) | 152.00
